Measured values reported in ChEMBL document CHEMBL1155157, “Fosamprenavir plus ritonavir increases plasma ketoconazole and ritonavir exposure, while amprenavir exposure remains unchanged” (Antimicrob Agents Chemother, 2007).

Tests used:
[1] = AUC (0 to tau) in human plasma at 200 mg qd for 4 days; type: ADME, organism-based
[2] = Cmax in human plasma at 200 mg qd for 4 days; type: ADME, organism-based; design: dose 200 mg

## CC(=O)N1CCN(c2ccc(OCC3COC(Cn4ccnc4)(c4ccc(Cl)cc4Cl)O3)cc2)CC1 (configuration not stated) [KETOCONAZOLE]
[1]
  AUC tau at 96 h: 16600 ng·h/mL
[2]
  Cmax: 3770 ng/mL
